Experimental data: paper PMC4774894 (Journal of natural products, 2015)

Tested on: HIV-1 NL4-3
Settings: for selectivity index CC50/EC50: CC50 (MT4 cells) / EC50 (HIV-1 NL4-3 in MT4); for selectivity index (SI) (bound or span stated in text for a group of compounds): bound or span over the group named

| SMILES | selectivity index CC50/EC50 | selectivity index (SI) (bound or span stated in text for a group of compounds) |
| --- | --- | --- |
| C=C(C)[C@]12C[C@@H](COC(=O)c3ccccc3)[C@]34OC5(CCCCCCC[C@H](C)[C@@H]6[C@@H]3[C@]3(O[C@]6(C)OC3=O)[C@H](O)[C@@]3(COC(=O)CCCCCCCCCCCCCCC)O[C@H]3[C@H]4[C@H]1O5)O2 [Compound 1, Stelleralide D] | ≥18 | < 50 |
| C=C(C)[C@]12C[C@@H](COC(=O)c3ccccc3)[C@]34OC5(CCCCCCC[C@H](C)[C@@H]6[C@@H]3[C@]3(O[C@]6(C)OC3=O)[C@H](O)[C@@]3(COC(=O)CCCCCCC/C=C\C/C=C\CCCCC)O[C@H]3[C@H]4[C@H]1O5)O2 [Compound 2, Stelleralide E] | ≥1 | < 50 |
| C=C(C)[C@]12C[C@@H](COC(C)=O)[C@@]34OC5(O[C@@H]1[C@@H]3[C@@H]1O[C@]1(CO)[C@@H](O)[C@@]1(O)[C@H]4[C@H]([C@H](C)[C@@H]1OC(=O)c1ccccc1)[C@H](C)C[C@@H](OC(=O)c1ccccc1)CCCC[C@H]5O)O2 [Compound 3, Stelleralide F] | ≥12903 | more than 10 000 |
| C=C(C)[C@]12C[C@@H](COC(=O)c3ccccc3)[C@@]34OC5(O[C@@H]1[C@@H]3[C@@H]1O[C@]1(CO)[C@@H](O)[C@@]1(O)[C@H]4[C@H]([C@H](C)[C@@H]1OC(=O)c1ccccc1)[C@H](C)C[C@@H](OC(=O)c1ccccc1)CCCC[C@H]5O)O2 [Compound 4, Stelleralide G] | ≥15342 | more than 10 000 |
| C=C(C)[C@]12C[C@@H](COC(=O)c3ccccc3)[C@@]34OC5(O[C@@H]1[C@@H]3[C@@H]1O[C@]1(COC(=O)c1ccccc1)[C@@H](O)[C@@]1(O)[C@H]4[C@H]([C@H](C)[C@@H]1O)[C@H](C)CCCCCC[C@H]5O)O2 [Compound 5, Stelleralide H] | ≥13163 | more than 10 000 |
| C=C(C)[C@@]12OC3(/C=C/C=C/CCCCCCCCCC)O[C@@H]1[C@@H]1[C@@H]4O[C@]4(CO)[C@@H](O)[C@]4(O)C(=O)C(C)=C[C@H]4[C@@]1(O3)[C@H](C)[C@H]2O [Compound 6, Stelleralide I] | ≥135 |  |
| C=C(C)[C@]1(O)C[C@@H](C)[C@@]2(O)[C@H]([C@H]1OC(=O)/C=C/C=C/CCCCCCCCC)[C@H](O)[C@@](O)(CO)[C@@H](O)[C@]1(O)C(=O)C(C)=C[C@H]12 [Compound 7, Stelleralide J] | ≥100 |  |
| C=C(C)[C@]12C[C@@H](COC(=O)c3ccccc3)[C@]34OC5(CCCCCCC[C@H](C)[C@@H]6[C@@H]3[C@]3(O[C@]6(C)OC3=O)[C@H](O)[C@@]3(CO)O[C@H]3[C@H]4[C@H]1O5)O2 [Compound 8, stelleralide C] | ≥41 | < 50 |
| C=C(C)[C@]12C[C@@H](C)[C@]34O[C@]5(CCCCCCC[C@H](C)[C@@H]6[C@@H]3[C@]3(O[C@]6(C)OC3=O)[C@H](O)[C@@]3(CO)O[C@H]3[C@H]4[C@H]1O5)O2 [Compound 9, pimelotide A] | ≥16 | < 50 |
| C=C(C)[C@]12C[C@@H](COC(=O)c3ccccc3)[C@@]34OC5(O[C@@H]1[C@@H]3[C@@H]1O[C@]1(CO)[C@@H](O)[C@@]1(O)[C@H]4[C@H]([C@H](C)[C@@H]1OC(=O)c1ccccc1)[C@H](C)CCCCCC[C@H]5O)O2 [Compound 10, gnidimacrin] | ≥21500 | more than 10 000 |
| C=C(C)[C@]12C[C@@H](C)[C@@]34OC5(CCCCCCC[C@@H](C)[C@H]6[C@H](C)[C@H](OC(=O)c7ccccc7)[C@@](O)([C@H](O)[C@@]7(CO)O[C@H]7[C@H]3[C@H]1O5)[C@@H]64)O2 [Compound 11, pimelea factor P2] | ≥14272 | more than 10 000 |
| C=C(C)[C@]12C[C@@H](COC(=O)c3ccccc3)[C@@]34OC5(CCCCCCC[C@@H](C)[C@H]6[C@H](C)C(=O)[C@@](O)([C@H](O)[C@@]7(CO)O[C@H]7[C@H]3[C@H]1O5)[C@@H]64)O2 [Compound 12, wikstroelide F] | ≥318 |  |
| C=C(C)[C@@]12O[C@@]3(/C=C/C=C/CCCCCCCCC)O[C@@H]1[C@@H]1[C@@H]4O[C@]4(CO)[C@@H](O)[C@]4(O)C(=O)C(C)=C[C@H]4[C@@]1(O3)[C@H](C)[C@H]2OC(C)=O [Compound 13, wikstroelide A] | ≥1300 |  |
| C=C(C)[C@@]12OC3(/C=C/C=C/CCCCCCCCCC)O[C@@H]1[C@@H]1[C@@H]4O[C@]4(CO)[C@@H](O)[C@]4(O)C(=O)C(C)=C[C@H]4[C@@]1(O3)[C@H](C)[C@H]2OC(C)=O [Compound 14, wikstroelide B] | ≥392 |  |
| C=C(C)[C@]12C[C@@H](C)[C@@]34OC(/C=C/C=C/CCCCCCCCCC)(O[C@@H]1[C@@H]3[C@@H]1O[C@]1(CO)[C@@H](O)[C@]1(O)C(=O)C(C)=C[C@H]14)O2 [Compound 15, wikstrotoxin A] | ≥1284 |  |
| C=C(C)[C@]12C[C@@H](C)[C@@]34O[C@](/C=C/C=C/CCCCCCCCC)(O[C@@H]1[C@@H]3[C@@H]1O[C@]1(CO)[C@@H](O)[C@]1(O)C(=O)C(C)=C[C@H]14)O2 [Compound 16, huratoxin] | ≥5384 |  |
| C=C(C)[C@]1(O)C[C@@H](C)[C@@]2(O)[C@H]([C@H]1OC(=O)/C=C/C=C/CCCCCCCCC)[C@@H]1O[C@]1(CO)[C@@H](O)[C@]1(O)C(=O)C(C)=C[C@H]12 [Compound 17, wikstroelide M] | ≥281 |  |
| C=C(C)[C@@]1(O)[C@H](OC(=O)/C=C/C=C/CCCCCCCCC)[C@@H]2[C@@H]3O[C@]3(CO)[C@@H](O)[C@]3(O)C(=O)C(C)=C[C@H]3[C@@]2(O)[C@H](C)[C@H]1OC(C)=O [Compound 18, wikstroelide J] | ≥345 |  |
| C=C(C)[C@]12C[C@@H](C)[C@@]34O[C@](CCCCCCCCC)(O[C@@H]1[C@@H]3[C@@H]1O[C@]1(CO)[C@@H](O)[C@]1(O)C(=O)C(C)=C[C@H]14)O2 [Compound 19, simplexin] | ≥400 |  |
